One block for each compound: values may come before it.
Experiments:
Type in all cases: cell-based
[1] = test system: U87MG MTAP(-/-) cells; test: Inhibition of proliferation of U87MG MTAP(-/-) cells (CellTiter-Glo); conditions: Homo sapiens, U-87 MG, 144 h, cell proliferation, 6 days
Protocol: Test 7: Assay for Inhibitory Activity of Compounds against U87MG MTAP(-/-) Cell Proliferation
(§1) Materials and Cells: The U87MG MTAP(-/-) cell line was purchased from ATCC (USA). Cell culture media, fetal bovine serum (FBS), and penicillin-streptomycin were purchased from Thermo Fisher Scientific (USA). 384-well plates were purchased from PerkinElmer (USA). The CellTiter-Glo assay kit was purchased from Promega (USA).
Cell Culture: U87MG MTAP(-/-) cells were cultured in a medium supplemented with 10% fetal bovine serum (FBS) and 1% penicillin-streptomycin at 37°C with 5% CO2. Only cells in the logarithmic growth phase were used for experiments.
(§2) Cell Proliferation Inhibition Assay: The antiproliferative activity of the compounds against U87MG MTAP(-/-) cells was assessed using the CellTiter-Glo assay kit. Cell suspensions were adjusted to the appropriate density and seeded into 384-well plates at a volume of 40 µL per well, then incubated overnight at 37°C with 5% CO2. Compounds (40 nL) were added to each well to achieve final concentrations ranging from 0 to 10,000 nM (starting concentration 10,000 nM, 3-fold serial dilutions, 10 dose points), with a final DMSO concentration of 0.5%. The cell plates were incubated at 37°C with 5% CO2 for 6 days. Subsequently, 40 µL of CellTiter-Glo reagent was added to measure cell viability. Paclitaxel was used as a control compound.

[2] = test system: LN18 MTAP(-/-) cells; test: Inhibition of proliferation of LN18 MTAP(-/-) cells (CellTiter-Glo); conditions: Homo sapiens, LN-18, 168 h, cell proliferation, 7 days
Protocol: Test 5: Assay for Inhibitory Activity of Compounds against LN18 MTAP(-/-) Cell Proliferation
as §1, with “LN18” for “U87MG”, “provided by Cobioer Biosciences (China).” for “purchased from ATCC (USA).”
Cell Culture: LN18 MTAP(-/-) cells were cultured in a medium supplemented with 10% fetal bovine serum (FBS) and 1% penicillin-streptomycin at 37°C with 5% CO2. Only cells in the logarithmic growth phase were used for experiments.
as §2, with “LN18” for “U87MG”, “1,000” for “10,000”, “9” for “10”, “[…].” for “0.5%.”, “7” for “6”, “viability.” for “viability. Paclitaxel was used as a control compound.”

[3] = test system: LN18 MTAP-overexpressing cells; test: Inhibition of proliferation of LN18 MTAP-overexpressing cells (CellTiter-Glo); conditions: Homo sapiens, LN-18, 168 h, cell proliferation, 7 days
Text: Test 6: Assay for Inhibitory Activity of Compounds against LN18 MTAP-Overexpressing Cell Proliferatio
as §1, with “LN18 MTAP-overexpressing” for “U87MG MTAP(-/-)”, “Cobioer Biosciences (China).” for “ATCC (USA).”
Cell Culture: LN18 MTAP-overexpressing cells were cultured in a medium supplemented with 10% fetal bovine serum (FBS) and 1% penicillin-streptomycin at 37°C with 5% CO2. Only cells in the logarithmic growth phase were used for experiments.
as §2, with “against LN18 MTAP-overexpressing” for “against U87MG MTAP(-/-)”, “dilutions, 9” for “dilutions, 10”, “of […].” for “of 0.5%.”, “for 7” for “for 6”, “viability.” for “viability. Paclitaxel was used as a control compound.”

[4] = test system: LU99; test: Mini cell panel: inhibition of proliferation of LU99 cells; conditions: Homo sapiens, Lu-99, MTAP (-/-)
Text: (§3) Test 9: Mini Cell Panel: Assay for Inhibitory Activity of Compounds against Proliferation of 20 Tumor Cell Lines
(§4) Materials and Cells: Fifteen MTAP(-/-) cell lines and five MTAP wild-type cell lines were purchased from ATCC (USA). Cell culture media, fetal bovine serum (FBS), and penicillin-streptomycin were purchased from Thermo Fisher Scientific (USA). 384-well plates were purchased from PerkinElmer (USA). The CellTiter-Glo assay kit was purchased from Promega (USA). Paclitaxel was used as the control compound.

[5] = test system: A549; test: Mini cell panel: inhibition of proliferation of A549 cells; conditions: Homo sapiens, A549, MTAP (-/-)
Text: as §3, §4

[6] = test system: PSN-1; test: Mini cell panel: inhibition of proliferation of PSN-1 cells; conditions: Homo sapiens, PSN1, MTAP (-/-)
Text: as §3, §4

[7] = test system: MKN-45; test: Mini cell panel: inhibition of proliferation of MKN-45 cells; conditions: Homo sapiens, MKN-45, MTAP (-/-)
Text: as §3, §4

[8] = test system: ACHN; test: Mini cell panel: inhibition of proliferation of ACHN cells; conditions: Homo sapiens, ACHN, MTAP (-/-)
Text: as §3, §4

[9] = test system: LN-18; test: Mini cell panel: inhibition of proliferation of LN-18 cells; conditions: Homo sapiens, LN-18, MTAP (-/-)
Text: as §3, §4

[10] = test system: SW780; test: Mini cell panel: inhibition of proliferation of SW780 cells; conditions: Homo sapiens, SW780, MTAP (-/-)
Text: as §3, §4

[11] = test system: SU-DHL-4; test: Mini cell panel: inhibition of proliferation of SU-DHL-4 cells; conditions: Homo sapiens, SU-DHL-4, MTAP Wild type
Text: as §3, §4

[12] = test system: BxPc-3; test: Mini cell panel: inhibition of proliferation of BxPc-3 cells; conditions: Homo sapiens, BXPC-3, MTAP (-/-)
Text: as §3, §4

[13] = test system: SK-MEL-5; test: Mini cell panel: inhibition of proliferation of SK-MEL-5 cells; conditions: Homo sapiens, MTAP (-/-)
Text: as §3, §4

[14] = test system: MDA-MB-231; test: Mini cell panel: inhibition of proliferation of MDA-MB-231 cells; conditions: Homo sapiens, MDA-MB-231, MTAP (-/-)
Text: as §3, §4

[15] = test system: CFPAC-1; test: Mini cell panel: inhibition of proliferation of CFPAC-1 cells; conditions: Homo sapiens, CFPAC-1, MTAP Wild type
Text: as §3, §4

[16] = test system: Aspc-1; test: Mini cell panel: inhibition of proliferation of Aspc-1 cells; conditions: Homo sapiens, ASPC1, MTAP Wild type
Text: as §3, §4

[17] = test system: NCI-H647; test: Mini cell panel: inhibition of proliferation of NCI-H647 cells; conditions: Homo sapiens, NCI-H647, MTAP (-/-)
Text: as §3, §4

[18] = test system: SU-DHL-10; test: Mini cell panel: inhibition of proliferation of SU-DHL-10 cells; conditions: Homo sapiens, SU-DHL10, MTAP Wild type
Text: as §3, §4

[19] = test system: DOHH-2; test: Mini cell panel: inhibition of proliferation of DOHH-2 cells; conditions: Homo sapiens, DOHH-2, MTAP (-/-)
Text: as §3, §4

[20] = test system: SW1573; test: Mini cell panel: inhibition of proliferation of SW1573 cells; conditions: Homo sapiens, SW1573, MTAP (-/-)
Text: as §3, §4

[21] = test system: Calu-1; test: Mini cell panel: inhibition of proliferation of Calu-1 cells; conditions: Homo sapiens, Calu-1, MTAP Wild type
Text: as §3, §4

[22] = test system: U87MG; test: Mini cell panel: inhibition of proliferation of U87MG cells; conditions: Homo sapiens, U-87 MG, MTAP (-/-)
Text: as §3, §4

SMILES: CN(C(=O)c1cc2c(cc1C#N)nc(N)c1cncn12)[C@@H]1COc2cc(C(F)(F)F)ccc21 [Example 14, (S)-4-amino-7-cyano-N-methyl-N-(6-(trifluoromethyl)-2,3-dihydrobenzofuran-3-yl)imi dazo[1,5-a]quinoxaline-8-carboxamide]
- IC50 [1]: 79.5 nM
- IC50 [2]: 5.56 nM
- IC50 [3]: 898 nM

- IC50 [1]: 5.55 nM
- IC50 [5]: 1.9 nM
- IC50 [7]: 1.8 nM
- IC50 [8]: 4.1 nM
- IC50 [10]: 1.6 nM
- IC50 [11]: 1.9 nM
- IC50 [12]: 0.9 nM
- IC50 [13]: 7.8 nM
- IC50 [14]: 2.5 nM
- IC50 [16]: 3.4 nM
- IC50 [17]: 1.4 nM
- IC50 [18]: 2.8 nM
- IC50 [20]: 2.5 nM
- IC50 [21]: 9.8 nM
- IC50 [22]: 5.2 nM
SMILES: CC(=O)O[C@H]1C(=O)[C@@]2(C)[C@H]([C@H](OC(=O)c3ccccc3)[C@]3(O)C[C@H](OC(=O)[C@H](O)[C@@H](NC(=O)c4ccccc4)c4ccccc4)C(C)=C1C3(C)C)[C@]1(OC(C)=O)CO[C@@H]1C[C@@H]2O [Paclitaxel, reference compound]
- IC50 [4]: 1.5 nM
- IC50 [6]: 2.9 nM
- IC50 [9]: 20.6 nM
- IC50 [15]: 1.1 nM
- IC50 [19]: 3.4 nM
